Measurements as given in patent US10421773B2, “Bone-selective osteogenic oxysterol bisphosphonate analogs” (The Regents of the University of California, priority 2014, dated 2019).

Experiments:
[1] = Hydroxyapatite (HAP) binding assay, NMR readout; details: in D2O, internal integration standard maleic acid, low HAP loading (FIG. 4C)
Protocol: The bone binding properties of bisphosphonates are due to their affinity for calcium in hydroxyapatite (HAP). Relative HAP binding capacity can be measured by incubating a solution of an analyte with HAP and measuring the proportion of compound remaining in the supernatant. […] Reliable quantification of a range of analytes can be obtained by using an inverse-gated decoupling pulse sequence and sufficiently long relaxation delays (d1).
The HAP binding assay was carried out under the following conditions: 1 mL of 4 mM analyte in 50 mM tris buffer at pH 7.5 is incubated with HAP (or no HAP for control) by inversion for 15 minutes. […] The procedure is illustrated in FIG. 3A.
The binding strengths of the OXY133-ALN conjugates of the present invention relative to ALN were determined and any differences in binding affinity contributed by the degree (mono- vs. bis-ALN linked conjugates), position (C3-OH vs. C6-OH), and nature (succinate vs. glycinate) of the Oxy133-ALN conjugates noted. ALN was used as a positive control and benzyl phosphonic acid (BnP) as an established negative control. 600 mg of HAP was used for the “large HAP loading” condition (FIG. 4A) and 150 mg of HAP was used for the “low HAP loading” condition (FIG. 4B).
Experimental conditions: 1 mL of 4 mM analyte in 50 mM tris buffer pH 7.5 is incubated with specified amount of HAP (or no HAP for control) by inversion for 15 min. […]

[2] = system: M2-10B4 osteoprogenitor cells; experiment: Osteogenic gene expression (ALP, BSP, OSX) in M2-10B4 cells; format: cell-based; details: 6 and 14 days of treatment, compared with untreated control cells and unconjugated OXY133, ranking within each linker series
Protocol: (§1) Oxy133-ALN conjugates were tested in M2-10B4 osteoprogenitor cells to ascertain osteogenic activity and confirm their mechanism of action in inducing osteogenic differentiation. Alkaline phosphatase (ALP) activity, induction of the expression of osteogenic differentiation marker genes (ALP; bone sialoprotein (BSP); and osterix (OSX)), and ^45Ca incorporation as a measure of extracellular matrix mineralization were assayed by our previously reported protocols. The inventors have shown that these in vitro assays translate into in vivo stimulation of bone formation in a variety of animal models. The gene expression for ALP, BSP and OSX induced by the OXY133-ALN conjugates were measured after 6 and 14 days of treatment, the results after 6 days are shown in FIG. 1.
(§2) The succinate-linked series (Oxy166, Oxy167, Oxy174) and the carbamate series (Oxy175, Oxy176, and Oxy177) were assayed as groups. […] It may be that OXY133 must be released from the OXY133-ALN conjugates in order to induce osteogenic gene expression. […] A quantitative ^45Ca mineralization assay was performed with analogues and unconjugated OXY133 over a 30-day incubation period in M2 cells as shown in FIG. 2.

[3] = system: M2-10B4 osteoprogenitor cells; experiment: Alkaline phosphatase (ALP) activity induction; format: cell-based; details: M2-10B4 cells; result mirrored the gene expression ranking
Protocol: as §1, §2

[4] = Half-life in human liver microsomes; format: in vitro ADME; details: HLM
[5] = system: human primary mesenchymal stem cells; details: cited from earlier work
[6] = system: spine fusion; details: compared to other analogues; cited from earlier work
[7] = system: bone disease models; details: rabbit spine fusion and rabbit calvarial defect models; cited from earlier work

Compound: CCCCCC[C@](C)(O)[C@H]1CC[C@H]2[C@@H]3C[C@H](O)[C@H]4C[C@@H](OC(=O)NCC(=O)NCCCC(O)(P(=O)(O)O)P(=O)(O)O)CC[C@]4(C)[C@H]3CC[C@@]21C [Oxy177]
- HAP binding affinity, 1H-NMR method [1]: binding affinity equivalent to the rest of the OXY-ALN series

Compound: CCCCCC[C@](C)(O)[C@H]1CC[C@H]2[C@@H]3C[C@H](OC(=O)NCC(=O)NCCCC(O)(P(=O)(O)O)P(=O)(O)O)[C@H]4C[C@@H](O)CC[C@]4(C)[C@H]3CC[C@@]21C [Oxy175]
- induction of osteogenic gene expression (ALP, BSP, OSX) [2]: most active
- ALP activity induction [3]: most active

Compound: CCCCCC[C@](C)(O)[C@H]1CC[C@H]2[C@@H]3C[C@H](O)[C@H]4C[C@@H](O)CC[C@]4(C)[C@H]3CC[C@@]21C [OXY133]
- half-life [4]: < 5 min
- osteogenesis in cultured human primary mesenchymal stem cells [5]: induce osteogenesis
- spine fusion in rats [6]: induce spine fusion in rats in an accelerated manner
- osteogenesis in non-rodent models of bone disease [7]: induce robust osteogenesis
